According to ChEMBL document CHEMBL1201862, “PubChem BioAssay data set” (2004):
Activity calls are given as the source filed them.

What was measured:
Paired box protein Pax-8 = Paired box protein Pax-8 (Homo sapiens, UniProt Q06710); test: inhibitors of PAX8-driven TPO luciferase reporter, dose response, RMG-I cells, cherry-pick (AID 687027); type: functional, cell-based;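 also: luciferase reporter driven by Pax8 target thyroperoxidase promoter measured by SteadyGlo luminescence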
Cytochrome P450 2D6 = Cytochrome P450 2D6 (Homo sapiens, UniProt P10635);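 also: CYP2D6 member of a cytochrome P450 panel assay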
Chain of Cytochrome P450 2D6 (P10635 whole entry): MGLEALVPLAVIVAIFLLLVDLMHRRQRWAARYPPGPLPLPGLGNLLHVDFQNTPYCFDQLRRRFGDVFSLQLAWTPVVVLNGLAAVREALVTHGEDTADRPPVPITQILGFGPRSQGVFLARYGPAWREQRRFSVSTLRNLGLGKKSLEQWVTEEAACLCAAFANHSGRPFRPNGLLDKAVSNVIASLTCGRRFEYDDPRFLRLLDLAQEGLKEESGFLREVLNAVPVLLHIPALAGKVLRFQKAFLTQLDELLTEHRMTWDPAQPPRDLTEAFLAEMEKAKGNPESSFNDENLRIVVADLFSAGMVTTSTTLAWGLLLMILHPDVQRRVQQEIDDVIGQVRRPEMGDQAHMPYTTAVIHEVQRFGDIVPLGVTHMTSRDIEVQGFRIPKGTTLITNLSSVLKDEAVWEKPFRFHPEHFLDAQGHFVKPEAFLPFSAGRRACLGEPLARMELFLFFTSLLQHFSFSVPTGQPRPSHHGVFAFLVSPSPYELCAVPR

Cytochrome P450 1A2 = target: T1, Cytochrome P450 1A2 (Homo sapiens, UniProt P05177);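 also: PubChem cytochrome P450 panel assay, CYP1A2 panel member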
T1 sequence (P05177 whole entry): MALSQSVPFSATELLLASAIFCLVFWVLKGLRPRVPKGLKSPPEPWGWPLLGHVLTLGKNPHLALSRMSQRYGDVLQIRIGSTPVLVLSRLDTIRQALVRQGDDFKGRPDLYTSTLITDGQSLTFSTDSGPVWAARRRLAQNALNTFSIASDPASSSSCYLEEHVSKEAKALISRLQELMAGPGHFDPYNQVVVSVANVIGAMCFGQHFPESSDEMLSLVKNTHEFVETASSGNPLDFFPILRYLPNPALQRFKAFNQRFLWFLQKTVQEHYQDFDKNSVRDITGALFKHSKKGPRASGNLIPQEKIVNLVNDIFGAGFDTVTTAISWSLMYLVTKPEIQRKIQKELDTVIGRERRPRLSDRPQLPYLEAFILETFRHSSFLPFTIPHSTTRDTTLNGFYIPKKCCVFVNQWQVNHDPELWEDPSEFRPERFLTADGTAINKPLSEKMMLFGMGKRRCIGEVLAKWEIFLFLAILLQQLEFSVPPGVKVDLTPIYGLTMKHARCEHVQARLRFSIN

Cytochrome P450 2C19 = Cytochrome P450 2C19 (Homo sapiens, UniProt P33261); test: Cytochrome panel assay with activity outcomes. Panel member name: p450-cyp2c19 Compounds with AC50 equal or less than 10 uM are considered active; type: functional; conditions: read-out: AC50
Chain of Cytochrome P450 2C19 (P33261 whole entry): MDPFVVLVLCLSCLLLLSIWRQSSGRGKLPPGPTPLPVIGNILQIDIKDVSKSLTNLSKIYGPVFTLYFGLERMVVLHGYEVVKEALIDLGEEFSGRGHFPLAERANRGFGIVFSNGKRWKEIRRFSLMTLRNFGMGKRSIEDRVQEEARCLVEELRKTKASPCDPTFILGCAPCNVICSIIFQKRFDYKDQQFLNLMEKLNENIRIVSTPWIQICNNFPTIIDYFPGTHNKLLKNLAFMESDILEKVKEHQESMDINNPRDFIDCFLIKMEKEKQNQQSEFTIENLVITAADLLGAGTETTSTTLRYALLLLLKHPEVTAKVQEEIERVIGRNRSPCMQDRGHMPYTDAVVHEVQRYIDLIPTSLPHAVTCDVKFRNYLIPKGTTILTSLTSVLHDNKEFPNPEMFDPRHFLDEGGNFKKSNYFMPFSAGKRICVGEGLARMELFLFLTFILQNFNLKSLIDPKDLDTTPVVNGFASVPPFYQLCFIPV

[1] = Luminescence Cell-Based Dose Response HTS to Identify Activators of Luciferase Translation or Activity in H4 […] Cells. [Related pubchem assays: 1829 (Project Summary), 1814 (Primary HTS)]; type: functional
H4 = test: Luminescence Cell-Based Dose Response HTS to Identify Activators of 5'UTR Stem-Loop Driven Prion Protein mRNA Translation in H4 Neuroglioblastoma Cells. [Related pubchem assays: 1829 (Project Summary), 1814 (Primary HTS)]; type: functional; conditions: Homo sapiens
[2] = target: T2, RNA-binding protein pos-1 (Caenorhabditis elegans, UniProt G5EF15); test: inhibitors of POS-1/mex-3 RNA binding, dose response, biochemical, fluorescence polarization (AID 1964);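 also: purified POS-1 fused to maltose binding protein made in E. coli; potency of compounds blocking POS-1 binding to fluorescent RNA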
T2 sequence (G5EF15 whole entry): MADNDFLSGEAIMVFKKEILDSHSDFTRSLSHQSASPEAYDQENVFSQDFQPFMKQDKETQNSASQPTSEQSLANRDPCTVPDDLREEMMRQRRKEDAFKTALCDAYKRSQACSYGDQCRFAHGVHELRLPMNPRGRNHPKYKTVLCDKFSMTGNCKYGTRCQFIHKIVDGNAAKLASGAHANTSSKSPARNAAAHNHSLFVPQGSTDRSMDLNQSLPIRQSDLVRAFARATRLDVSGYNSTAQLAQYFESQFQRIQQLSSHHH

[3] = target: T3, Zinc finger protein mex-5 (Caenorhabditis elegans, UniProt Q9XUB2); test: MEX-5/TCR-2 RNA interaction inhibitors, dose response, biochemical, C. elegans, fluorescence polarization (AID 1960)
T3 sequence (Q9XUB2 whole entry): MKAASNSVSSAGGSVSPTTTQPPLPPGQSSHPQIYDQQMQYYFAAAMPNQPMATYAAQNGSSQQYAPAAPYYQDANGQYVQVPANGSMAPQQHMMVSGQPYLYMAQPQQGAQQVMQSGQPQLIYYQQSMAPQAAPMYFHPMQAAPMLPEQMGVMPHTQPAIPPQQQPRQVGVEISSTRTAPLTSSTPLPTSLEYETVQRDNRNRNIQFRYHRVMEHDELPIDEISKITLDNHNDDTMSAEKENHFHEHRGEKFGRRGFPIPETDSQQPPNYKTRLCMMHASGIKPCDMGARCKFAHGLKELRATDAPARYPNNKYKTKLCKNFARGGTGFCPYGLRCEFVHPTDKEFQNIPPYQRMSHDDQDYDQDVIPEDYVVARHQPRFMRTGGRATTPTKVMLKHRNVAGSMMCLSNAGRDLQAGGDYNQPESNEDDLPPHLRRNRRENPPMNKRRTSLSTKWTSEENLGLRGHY

Cytochrome P450 2C9 = Cytochrome P450 2C9 (Homo sapiens, UniProt P11712)
Chain of Cytochrome P450 2C9 (P11712 whole entry): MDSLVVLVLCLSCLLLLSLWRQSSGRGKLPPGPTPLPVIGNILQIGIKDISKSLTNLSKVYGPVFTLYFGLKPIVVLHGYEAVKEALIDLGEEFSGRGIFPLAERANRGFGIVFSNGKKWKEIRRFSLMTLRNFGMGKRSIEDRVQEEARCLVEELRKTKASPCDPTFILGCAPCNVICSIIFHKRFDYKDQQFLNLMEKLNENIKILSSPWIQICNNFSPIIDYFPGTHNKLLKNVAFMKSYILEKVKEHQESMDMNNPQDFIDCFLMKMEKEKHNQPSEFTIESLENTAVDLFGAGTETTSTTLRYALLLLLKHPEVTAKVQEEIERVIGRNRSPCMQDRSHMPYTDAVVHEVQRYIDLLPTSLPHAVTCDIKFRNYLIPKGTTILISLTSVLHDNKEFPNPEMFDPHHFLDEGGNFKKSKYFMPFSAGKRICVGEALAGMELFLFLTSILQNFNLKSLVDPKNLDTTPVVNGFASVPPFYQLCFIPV

Cytochrome P450 3A4 = Cytochrome P450 3A4 (Homo sapiens, UniProt P08684);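 also: CYP3A4 tested as one member of a cytochrome P450 panel screen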
Chain of Cytochrome P450 3A4 (P08684 whole entry): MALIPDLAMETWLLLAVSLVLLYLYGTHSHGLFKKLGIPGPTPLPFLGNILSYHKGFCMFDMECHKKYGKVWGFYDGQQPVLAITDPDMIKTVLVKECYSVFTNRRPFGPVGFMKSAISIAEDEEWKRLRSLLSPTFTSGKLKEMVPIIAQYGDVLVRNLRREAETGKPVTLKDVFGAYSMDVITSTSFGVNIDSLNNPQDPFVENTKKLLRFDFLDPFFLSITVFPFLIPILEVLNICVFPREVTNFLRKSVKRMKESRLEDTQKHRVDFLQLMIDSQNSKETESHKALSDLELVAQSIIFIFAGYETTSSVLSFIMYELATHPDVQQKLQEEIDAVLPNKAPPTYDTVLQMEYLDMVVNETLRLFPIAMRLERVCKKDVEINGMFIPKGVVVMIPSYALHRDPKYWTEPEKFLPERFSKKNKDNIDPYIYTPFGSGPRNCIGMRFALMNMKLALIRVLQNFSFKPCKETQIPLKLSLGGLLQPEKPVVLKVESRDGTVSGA

[4] = system: Streptococcus sp. 'group A'; test: growth inhibition of control SK(-) GAS strain, dose response, counter-screen for streptokinase expression inhibitor project, luminescence, kanamycin, BacTiterGlo, confirmation (AID 1900); type: functional, organism-based
[5] = target: T4, Corticotropin-releasing factor receptor 2/Corticotropin-releasing factor-binding protein (Homo sapiens, UniProt P24387+Q13324); test: activators of CRF receptor 2 with binding protein – uHTS hits, confirmation (AID 602473); type: functional; conditions: read-out: EC50_Mean
T4 sequence (Q13324 whole entry): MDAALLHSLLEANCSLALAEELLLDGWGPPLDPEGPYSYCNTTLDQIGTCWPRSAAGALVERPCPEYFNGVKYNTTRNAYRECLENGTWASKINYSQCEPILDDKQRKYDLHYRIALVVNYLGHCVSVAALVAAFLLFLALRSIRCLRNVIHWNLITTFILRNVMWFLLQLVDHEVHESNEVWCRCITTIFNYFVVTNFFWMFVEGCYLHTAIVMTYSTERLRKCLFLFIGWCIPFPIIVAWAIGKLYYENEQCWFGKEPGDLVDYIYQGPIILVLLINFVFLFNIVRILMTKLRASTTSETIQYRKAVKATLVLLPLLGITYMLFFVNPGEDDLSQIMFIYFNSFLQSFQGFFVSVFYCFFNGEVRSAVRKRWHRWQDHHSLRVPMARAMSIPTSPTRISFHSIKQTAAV
T4 sequence (P24387 whole entry): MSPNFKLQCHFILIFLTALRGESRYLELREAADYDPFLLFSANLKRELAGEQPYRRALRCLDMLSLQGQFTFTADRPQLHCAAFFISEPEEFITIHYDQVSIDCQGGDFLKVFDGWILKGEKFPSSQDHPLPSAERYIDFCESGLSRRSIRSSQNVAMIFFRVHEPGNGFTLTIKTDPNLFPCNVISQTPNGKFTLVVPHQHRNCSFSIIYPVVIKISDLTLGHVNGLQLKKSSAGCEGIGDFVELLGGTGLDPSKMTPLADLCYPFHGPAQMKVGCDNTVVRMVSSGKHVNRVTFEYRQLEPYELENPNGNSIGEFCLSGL

Streptococcus = test: Group A Streptococcus viability loss, dose response, counter-screen for streptokinase expression inhibitor project, luminescence, BacTiterGlo (AID 1915); type: functional, organism-based;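 also: potency for reduction of bacterial viability or growth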
[6] = target: T5, Heat shock factor protein 1 (Mus musculus, UniProt P38532); test: inhibition of MG132-induced HSE-luciferase signal, confirmation, cell-based, NIH3T3, luminescence, dose retest (AID 2382); type: functional;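 also: NIH3T3 fibroblasts with HSF1-driven luciferase reporter stressed by proteasome inhibitor MG132; luminescence from HSF1-driven luciferase expression after 8 hours of MG132 stress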
T5 sequence (P38532 whole entry): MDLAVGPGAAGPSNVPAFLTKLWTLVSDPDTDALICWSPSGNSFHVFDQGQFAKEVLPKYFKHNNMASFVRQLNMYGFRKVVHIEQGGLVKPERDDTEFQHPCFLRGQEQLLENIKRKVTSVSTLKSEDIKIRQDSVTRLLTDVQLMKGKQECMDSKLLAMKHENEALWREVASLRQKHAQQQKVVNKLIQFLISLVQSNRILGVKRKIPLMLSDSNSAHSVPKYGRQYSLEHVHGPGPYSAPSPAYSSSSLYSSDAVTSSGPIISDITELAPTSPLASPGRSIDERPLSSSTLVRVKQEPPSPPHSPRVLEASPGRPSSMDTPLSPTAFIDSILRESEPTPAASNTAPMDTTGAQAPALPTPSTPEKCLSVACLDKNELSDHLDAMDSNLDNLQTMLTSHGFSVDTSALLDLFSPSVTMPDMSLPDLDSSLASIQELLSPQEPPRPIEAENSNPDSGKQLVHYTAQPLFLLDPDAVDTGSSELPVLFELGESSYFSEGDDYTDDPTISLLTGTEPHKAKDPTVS

[7] = HEp-2 cell cytotoxicity, dose response, cytotoxicity control for RSV inhibitor project, HTS (AID 2410); type: functional; conditions: human respiratory syncytial virus
Streptokinase A = target: T6, Streptokinase A (Streptococcus pyogenes serotype M1, UniProt P10520); test: S. pyogenes streptokinase expression inhibitors, potency, dose response, plasminogen activation absorbance, OD405 (AID 1914); type: functional, Streptococcus pyogenes M1 GAS;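 also: secreted streptokinase activity via plasminogen activation per viability signal from cell pellet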
T6 sequence (P10520 whole entry): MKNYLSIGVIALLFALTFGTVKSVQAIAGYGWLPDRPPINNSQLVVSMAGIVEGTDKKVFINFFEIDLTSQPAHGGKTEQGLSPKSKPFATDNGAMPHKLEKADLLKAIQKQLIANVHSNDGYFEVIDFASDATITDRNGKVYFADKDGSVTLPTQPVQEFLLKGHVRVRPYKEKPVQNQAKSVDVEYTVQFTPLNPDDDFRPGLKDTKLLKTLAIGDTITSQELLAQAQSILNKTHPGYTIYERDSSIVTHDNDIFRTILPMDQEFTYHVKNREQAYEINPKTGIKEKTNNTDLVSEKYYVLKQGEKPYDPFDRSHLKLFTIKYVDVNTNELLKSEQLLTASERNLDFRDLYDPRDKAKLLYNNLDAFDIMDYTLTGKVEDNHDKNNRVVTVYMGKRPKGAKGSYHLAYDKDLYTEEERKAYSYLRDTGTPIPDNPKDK

Chain of Paired box protein Pax-8 (Q06710 whole entry): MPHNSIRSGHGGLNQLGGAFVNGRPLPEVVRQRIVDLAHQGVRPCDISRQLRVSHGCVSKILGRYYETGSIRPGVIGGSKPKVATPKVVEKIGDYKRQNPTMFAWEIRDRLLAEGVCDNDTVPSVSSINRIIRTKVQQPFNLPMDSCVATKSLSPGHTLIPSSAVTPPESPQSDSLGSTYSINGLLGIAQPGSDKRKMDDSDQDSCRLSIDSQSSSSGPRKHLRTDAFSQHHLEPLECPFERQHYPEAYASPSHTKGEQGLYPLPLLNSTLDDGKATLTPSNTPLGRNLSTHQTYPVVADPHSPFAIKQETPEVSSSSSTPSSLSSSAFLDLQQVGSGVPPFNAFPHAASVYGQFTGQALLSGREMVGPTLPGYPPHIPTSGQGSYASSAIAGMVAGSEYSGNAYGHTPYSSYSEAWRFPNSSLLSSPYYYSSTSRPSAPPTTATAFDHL

CCCCn1nc(C(=O)Nc2cc(C(F)(F)F)ccc2N2CCOCC2)ccc1=O
AC50 (Paired box protein Pax-8): 4.7 µM (active)

COC(=O)[C@@]1(Cc2ccc(F)cc2)[C@H]2c3cc(C(=O)N(C)C)n(Cc4ccc(Cl)c(C(F)(F)F)c4)c3C[C@H]2CN1C(=O)c1ccccc1
AC50 (Cytochrome P450 2D6): 6.31 µM (inconclusive)
AC50 (Cytochrome P450 1A2): 15.8 µM (inconclusive)
AC50 (Cytochrome P450 2C19): 5.01 µM (inconclusive)

COC(=O)[C@@]1(Cc2ccc(OC)cc2)[C@H]2c3cc(C(=O)N4CCCC4)n(CCc4ccc(O)c(OC)c4)c3C[C@H]2CN1C(=O)c1ccccc1
AC50 (Cytochrome P450 2D6): 39.8 µM (inconclusive)

[O-][n+]1onc2c3ccnnc3ccc21
EC50 [1]: 1.93 µM (active)
EC50 (H4): > 120 µM (not active)

CC1(OC(=O)C2CCCC2)C(=O)C=C2C=C(C3CC3)OC=C2C1=O (stereo not drawn)
EC50 [2]: > 300 µM (not active)
EC50 [3]: > 300 µM (not active)

Clc1ccc(COc2ccccn2)cc1Cl
AC50 (Cytochrome P450 2D6): 11.2 µM (inconclusive)

Cc1cc(N2C(=O)C(O)=C(C(=O)c3cc4ccccc4o3)C2c2ccc([N+](=O)[O-])cc2)no1 (stereo not drawn)
EC50 [2]: > 300 µM (not active)
EC50 [3]: 45.4 µM (active)

COc1cc(OC)c2c(-c3cccc(-c4ccc(OC)c(F)c4)c3)cc(=O)oc2c1
AC50 (Paired box protein Pax-8): 1.08 µM (active)

COC(=O)[C@@]1(Cc2ccc(F)cc2)[C@H]2c3cc(C(=O)N(C)C)n(Cc4cc(C)n(C)n4)c3C[C@H]2CN1C(=O)c1ccccc1
AC50 (Cytochrome P450 2D6): 39.8 µM (inconclusive)
AC50 (Cytochrome P450 2C19): 39.8 µM (inconclusive)

Cc1cccc(Nc2nc3c(s2)CCCC3)c1
EC50 [1]: 2.59 µM (active)
EC50 (H4): 3.41 µM (active)

O=C(NCc1ccc2c(c1)OCO2)C1CC(=O)N(C2CCCC2)C1 (stereo not drawn)
AC50 (Cytochrome P450 2D6): 12.6 µM (inconclusive)
AC50 (Cytochrome P450 1A2): 17.8 µM (inconclusive)
AC50 (Cytochrome P450 2C19): 35.5 µM (inconclusive)

CC(C)C(=O)NCCCc1ccccc1
AC50 (Cytochrome P450 2D6): 20 µM (inconclusive)
AC50 (Cytochrome P450 2C9): 5.62 µM (inconclusive)

O=C(CN1CCN(c2ccc(Cl)cc2)CC1)Nc1cccc(F)c1
AC50 (Cytochrome P450 3A4): 25.1 µM (inconclusive)
AC50 (Cytochrome P450 2D6): 1.41 µM (inconclusive)

COc1ccc2[nH]c(-c3ccccc3)c(CCNC(C)=O)c2c1
AC50 (Cytochrome P450 2D6): 25.1 µM (inconclusive)

Cc1ccc(C(=O)NNC(=S)NC(=O)c2ccc(Cl)cc2Cl)cc1
EC50 [4]: 0.196 µM (active)
EC50 [5]: 2.78 µM (active)
EC50 (Streptococcus): 3.82 µM (active)

COc1ccc(NC(=O)CSc2nnc(CNC(=O)c3ccco3)n2-c2ccccc2OC)cc1
AC50 (Cytochrome P450 3A4): 39.8 µM (inconclusive)
AC50 (Cytochrome P450 2D6): 35.5 µM (inconclusive)
AC50 (Cytochrome P450 2C9): 5.01 µM (inconclusive)
AC50 (Cytochrome P450 2C19): 3.98 µM (inconclusive)

C1=Cc2ccccc2C1.C=C(C)c1ccccc1.[N-]=[N+]=Nc1ccccc1
AC50 (Cytochrome P450 2D6): 3.98 µM (inconclusive)
AC50 (Cytochrome P450 2C19): 3.16 µM (inconclusive)

Cc1cc(F)ccc1S(=O)(=O)NCC1CC2CCC1C2 (stereo not drawn)
EC50 [5]: > 53 µM (inactive)

O=C(NC(=S)Nc1ccc(F)cc1)c1ccc2c(c1)OCCO2
EC50 [5]: > 53 µM (inactive)
EC50 [6]: > 195 µM (not active)

CCN(CC)c1ccc(C=C2SC(=S)NC2=O)cc1
EC50 [5]: 4.11 µM (active)

CCOc1ccc(NS(=O)(=O)c2ccc(C(=O)NCC(c3cccs3)N3CCOCC3)cc2)cc1 (stereo not drawn)
EC50 [5]: 5.04 µM (active)

CCOc1ccc(C(CN2CCOCC2)C(C)=O)cc1OC (stereo not drawn)
AC50 (Paired box protein Pax-8): 1.68 µM (active)

COc1ccc(S(=O)(=O)Nc2ccc3c(c2)CC(=O)N([C@H](C)CO)C[C@H](C)[C@@H](CN(C)Cc2ccc(Cl)c(Cl)c2)O3)cc1
AC50 (Paired box protein Pax-8): 16.2 µM (active)

Cc1ccc(S(=O)(=O)Nc2ccc3c(c2)C(=O)N([C@@H](C)CO)C[C@@H](C)[C@@H](CN(C)Cc2ccc(C(F)(F)F)cc2)OCCCC[C@@H](C)O3)cc1
AC50 (Paired box protein Pax-8): 13.3 µM (active)

CC(=O)O[C@@H]1CN2CCC1CC2 [(S)-ACECLIDINE]
AC50 (Cytochrome P450 2D6): 15.8 µM (inconclusive)

CC1Oc2cc3oc4c(O)c5c(cc4c(=O)c3c(O)c2C1(C)C)C=CC(C)(C)O5 (stereo not drawn) [GERONTOXANTHONE A]
EC50 [1]: 2.13 µM (active)
EC50 [4]: 1.11 µM (active)
CC50 [7]: 14.9 µM (active)
EC50 (Streptokinase A): 10.7 µM (active)
EC50 (Streptococcus): 25.9 µM (active)
